Biological target: T1, CDK2 (Homo sapiens, UniProt P24941)
T1 construct: endogenous in cells; host or cells: MKN1 cells
Test: CDK2 degradation in MKN1 cells (AlphaLISA)
Type: cell-based
Design: key to CDK2 degradation 14 h: Mean external-Abs DC50 (nM): A (<100 nM); B (≥100-500 nM); C (>500-1000 nM); D (>1000 nM); E (not achieved)
Conditions: 14 h incubation; for DC50: read-out: CDK2 degradation 14 h: Mean external-Abs DC50
Summary of the method: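 MKN1 cells (2e4/well) treated 14 h at 37° C with 11-point 1:5 dilutions (0.001 nM-10 μM, 0.1% DMSO). CDK2 in lysates quantified by AlphaLISA, no-cell background subtracted; DC50 from four-parameter logistic fit.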

Cc1cc(S(=O)(=O)N2CCC3(CCN(Cc4cccc5c4n(C)c(=O)n5C4CCC(=O)NC4=O)CC3)CC2)ccc1Nc1ncc2ccc(=O)n(C3CCCC3)c2n1 (stereo not shown) [I-458]
CDK2 degradation 14 h: Average Dmax %: B (B (>50% -75%))
DC50: 100 to 500 nM

Cc1cc(S(=O)(=O)N2CCN(CCCCOCCCc3ccc4c(c3)n(C)c(=O)n4C3CCC(=O)NC3=O)CC2)ccc1Nc1ncc2ccc(=O)n(C3CCCC3)c2n1 (stereo not shown) [I-459]
CDK2 degradation 14 h: Average Dmax %: B (B (>50% -75%))
DC50: 100 to 500 nM

Cc1cc(S(=O)(=O)NCCOCCOCCOCCOCCCc2ccc3c(c2)n(C)c(=O)n3C2CCC(=O)NC2=O)ccc1Nc1ncc2c(C)c(Br)c(=O)n(C3CCCC3)c2n1 (stereo not shown) [I-460]
CDK2 degradation 14 h: Average Dmax %: B (B (>50% -75%))
DC50: < 100 nM

Cc1cc(S(=O)(=O)NCCOCCOCCOCCCc2ccc3c(c2)n(C)c(=O)n3C2CCC(=O)NC2=O)ccc1Nc1ncc2cc(Cl)c(=O)n(C3CCCC3)c2n1 (stereo not shown) [I-461]
CDK2 degradation 14 h: Average Dmax %: A (A (>75% o))
DC50: < 100 nM

Cc1cc(S(=O)(=O)N2CC(OCCN3CCC(c4ccc5c(c4)n(C)c(=O)n5C4CCC(=O)NC4=O)CC3)C2)ccc1Nc1ncc2ccc(=O)n(C3CCCC3)c2n1 (stereo not shown) [I-462]
CDK2 degradation 14 h: Average Dmax %: A (A (>75% o))
DC50: < 100 nM

Cc1cc(S(=O)(=O)N2CC3(CC(OCCN4CCC(c5ccc6c(c5)n(C)c(=O)n6C5CCC(=O)NC5=O)CC4)C3)C2)ccc1Nc1ncc2ccc(=O)n(C3CCCC3)c2n1 (stereo not shown) [I-463]
CDK2 degradation 14 h: Average Dmax %: C (C (>25% -50%))
CDK2 degradation 14 h: Mean external-Abs DC50 (nM): E

Cc1cc(S(=O)(=O)N2CCC(N3CCN(CCCc4ccc5c(c4)n(C)c(=O)n5C4CCC(=O)NC4=O)CC3)CC2)ccc1Nc1ncc2ccc(=O)n(C3CCCC3)c2n1 (stereo not shown) [I-464]
CDK2 degradation 14 h: Average Dmax %: B (B (>50% -75%))
DC50: < 100 nM

Cc1cc(S(=O)(=O)NCCOCCOCCCc2ccc3c(c2)n(C)c(=O)n3C2CCC(=O)NC2=O)ccc1Nc1ncc2c(C)cc(=O)n(C3CCCC3)c2n1 (stereo not shown) [I-466]
CDK2 degradation 14 h: Average Dmax %: D (D (<25%))
DC50: > 1000 nM

Cc1cc(S(=O)(=O)NCCOCCOCCOCCOCCCc2ccc3c(c2)n(C)c(=O)n3C2CCC(=O)NC2=O)ccc1Nc1ncc2c(C)cc(=O)n(C3CCCC3)c2n1 (stereo not shown) [I-467]
CDK2 degradation 14 h: Average Dmax %: C (C (>25% -50%))
CDK2 degradation 14 h: Mean external-Abs DC50 (nM): E

Cc1cc(S(=O)(=O)NCCOC2CCC(CN3CCC(c4ccc5c(c4)n(C)c(=O)n5C4CCC(=O)NC4=O)CC3)CC2)ccc1Nc1ncc2ccc(=O)n(C3CCCC3)c2n1 (stereo not shown) [I-468]
CDK2 degradation 14 h: Average Dmax %: A (A (>75% o))
DC50: < 100 nM

Cc1cc(S(=O)(=O)NCCOC2CCC(N(C)CC3CCN(c4ccc5c(c4)n(C)c(=O)n5C4CCC(=O)NC4=O)CC3)CC2)ccc1Nc1ncc2ccc(=O)n(C3CCCC3)c2n1 (stereo not shown) [I-469]
CDK2 degradation 14 h: Average Dmax %: A (A (>75% o))
DC50: < 100 nM

Cc1cc(S(=O)(=O)NCCOC2CCC3(CC2)CCN(CCCc2ccc4c(c2)n(C)c(=O)n4C2CCC(=O)NC2=O)CC3)ccc1Nc1ncc2ccc(=O)n(C3CCCC3)c2n1 (stereo not shown) [I-470]
CDK2 degradation 14 h: Average Dmax %: A (A (>75% o))
DC50: < 100 nM

Cc1cc(S(=O)(=O)NCCOC2CCC3(CC2)CCN(CC#Cc2ccc4c(c2)n(C)c(=O)n4C2CCC(=O)NC2=O)CC3)ccc1Nc1ncc2ccc(=O)n(C3CCCC3)c2n1 (stereo not shown) [I-471]
CDK2 degradation 14 h: Average Dmax %: A (A (>75% o))
DC50: < 100 nM

Cc1cc(S(=O)(=O)NCCOC2CC3(C2)CN(CCCc2ccc4c(c2)n(C)c(=O)n4C2CCC(=O)NC2=O)C3)ccc1Nc1ncc2ccc(=O)n(C3CCCC3)c2n1 (stereo not shown) [I-472]
CDK2 degradation 14 h: Average Dmax %: A (A (>75% o))
DC50: < 100 nM

Cc1cc(S(=O)(=O)NCCOC2CC3(C2)CN(CC#Cc2ccc4c(c2)n(C)c(=O)n4C2CCC(=O)NC2=O)C3)ccc1Nc1ncc2ccc(=O)n(C3CCCC3)c2n1 (stereo not shown) [I-473]
CDK2 degradation 14 h: Average Dmax %: A (A (>75% o))
DC50: < 100 nM

Cc1cc(S(=O)(=O)NCCOCCOCCOCCCc2ccc3c(c2)n(C)c(=O)n3C2CCC(=O)NC2=O)ccc1Nc1ncc2ccc(=O)n(C3CCCC3)c2n1 (stereo not shown) [I-474]
CDK2 degradation 14 h: Average Dmax %: A (A (>75% o))
DC50: < 100 nM

Cc1cc(S(=O)(=O)NCCOCCOCCCc2ccc3c(c2)n(C)c(=O)n3C2CCC(=O)NC2=O)ccc1Nc1ncc2ccc(=O)n(C3CCCC3)c2n1 (stereo not shown) [I-475]
CDK2 degradation 14 h: Average Dmax %: A (A (>75% o))
DC50: < 100 nM

Cc1cc(S(=O)(=O)NCCOCCOCCOCCOCCNc2cccc3c2C(=O)N(C2CCC(=O)NC2=O)C3=O)ccc1Nc1ncc2cc(C(F)F)c(=O)n(C3CCCC3(C)O)c2n1 (stereo not shown) [I-483]
CDK2 degradation 14 h: Average Dmax %: A (A (>75% o))
DC50: < 100 nM

Cc1cc(S(=O)(=O)NCCOCCOCCCc2ccc3c(c2)n(C)c(=O)n3C2CCC(=O)NC2=O)ccc1Nc1ncc2cc(C(F)F)c(=O)n(C3CCCC3(C)O)c2n1 (stereo not shown) [I-484]
CDK2 degradation 14 h: Average Dmax %: A (A (>75% o))
DC50: < 100 nM

Cc1cc(S(=O)(=O)NCCOCCOCCOCCOCCCc2ccc3c(c2)n(C)c(=O)n3C2CCC(=O)NC2=O)ccc1Nc1ncc2cc(C(F)F)c(=O)n(C3CCCC3(C)O)c2n1 (stereo not shown) [I-486]
CDK2 degradation 14 h: Average Dmax %: A (A (>75% o))
DC50: < 100 nM

Cc1cc(S(=O)(=O)NCCOCCOCCCc2cccc3c2n(C)c(=O)n3C2CCC(=O)NC2=O)ccc1Nc1ncc2cc(C(F)F)c(=O)n([C@@H]3CCC[C@]3(C)O)c2n1 (stereo partly shown) [I-487]
CDK2 degradation 14 h: Average Dmax %: A (A (>75% o))
DC50: < 100 nM

Cc1cc(NCCOCCOCCOCCOCCCc2cccc3c2n(C)c(=O)n3C2CCC(=O)NC2=O)ccc1Nc1ncc2cc(C(F)F)c(=O)n([C@@H]3CCC[C@]3(C)O)c2n1 (stereo partly shown) [I-490]
CDK2 degradation 14 h: Average Dmax %: A (A (>75% o))
DC50: < 100 nM

C[C@]1(O)CCC[C@H]1n1c(=O)c(C(F)F)cc2cnc(NC3CCN(C(=O)COCCOCCNc4cccc5c4C(=O)N(C4CCC(=O)NC4=O)C5=O)CC3)nc21 (stereo partly shown) [I-491]
CDK2 degradation 14 h: Average Dmax %: D (D (<25%))
DC50: > 1000 nM

C[C@]1(O)CCC[C@H]1n1c(=O)c(C(F)F)cc2cnc(NC3CCN(C(=O)COCCOCCOCCOCCNc4cccc5c4C(=O)N(C4CCC(=O)NC4=O)C5=O)CC3)nc21 (stereo partly shown) [I-494]
CDK2 degradation 14 h: Average Dmax %: D (D (<25%))
DC50: > 1000 nM

Cn1c(=O)n(C2CCC(=O)NC2=O)c2cccc(CCCOCCOCC(=O)N3CCC(Nc4ncc5cc(C(F)F)c(=O)n([C@@H]6CCC[C@]6(C)O)c5n4)CC3)c21 (stereo partly shown) [I-499]
CDK2 degradation 14 h: Average Dmax %: D (D (<25%))
DC50: > 1000 nM

Cn1c(=O)n(C2CCC(=O)NC2=O)c2cccc(CCCOCCOCCOCCOCC(=O)N3CCC(Nc4ncc5cc(C(F)F)c(=O)n([C@@H]6CCC[C@]6(C)O)c5n4)CC3)c21 (stereo partly shown) [I-502]
CDK2 degradation 14 h: Average Dmax %: D (D (<25%))
DC50: > 1000 nM

Cc1cc(S(=O)(=O)C2CC3(CCN(CC4CCN(c5ccc6c(c5F)n(C)c(=O)n6C5CCC(=O)NC5=O)CC4)CC3)C2)ccc1Nc1ncc(C(F)(F)F)c(N2CCC(C(C)(C)O)C2)n1 (stereo not shown) [I-505]
CDK2 degradation 14 h: Average Dmax %: A (A (>75% o))
DC50: < 100 nM

Cc1cc(S(=O)(=O)C2CC3(CCN(CC4CCN(c5ccc6c(c5F)n(C)c(=O)n6C5CCC(=O)NC5=O)CC4)CC3)C2)ccc1Nc1ncc(C(F)(F)F)c(N2CCCC(O)(C(F)F)C2)n1 (stereo not shown) [I-507]
CDK2 degradation 14 h: Average Dmax %: B (B (>50% -75%))
DC50: < 100 nM

CCc1cnc(Nc2ccc(S(=O)(=O)C3CC4(CCN(CC5CCN(c6cccc7c6n(C)c(=O)n7C6CCC(=O)NC6=O)CC5)CC4)C3)cc2C)nc1C1CCC(C)(O)CC1 (stereo not shown) [I-514]
CDK2 degradation 14 h: Average Dmax %: D (D (<25%))
DC50: > 1000 nM

Cc1cc(S(=O)(=O)NCCOC2CCC(CN3CCC(c4ccc5c(c4F)n(C)c(=O)n5C4CCC(=O)NC4=O)CC3)CC2)ccc1Nc1ncc(C(F)(F)F)c(C2CCC(C)(O)CC2)n1 (stereo not shown) [I-515]
CDK2 degradation 14 h: Average Dmax %: A (A (>75% o))
DC50: < 100 nM

Cc1cc(S(=O)(=O)C2CC3(CCN(CC4CCN(c5ccc6c(c5F)n(C)c(=O)n6C5CCC(=O)NC5=O)CC4)CC3)C2)ccc1Nc1ncc(C(F)(F)F)c(C2CCC(O)(C(C)C)CC2)n1 (stereo not shown) [I-516]
CDK2 degradation 14 h: Average Dmax %: B (B (>50% -75%))
DC50: > 1000 nM

Cc1cc(S(=O)(=O)C2CC3(CCN(CC4CCN(c5ccc6c(c5F)n(C)c(=O)n6C5CCC(=O)NC5=O)CC4)CC3)C2)ccc1Nc1ncc(C(F)(F)F)c(N2CCCC(C)(O)C2)n1 (stereo not shown) [I-518]
CDK2 degradation 14 h: Average Dmax %: A (A (>75% o))
DC50: < 100 nM

Cc1cc(S(=O)(=O)NCCOC2CCC(CN3CCC(c4ccc5c(c4)n(C)c(=O)n5C4CCC(=O)NC4=O)CC3)CC2)ccc1Nc1ncc(C(F)(F)F)c(C2CCC(C)(O)CC2)n1 (stereo not shown) [I-519]
CDK2 degradation 14 h: Average Dmax %: B (B (>50% -75%))
DC50: < 100 nM

Cc1cc(S(=O)(=O)C2CC3(CCN(CC4CCN(c5ccc6c(c5F)n(C)c(=O)n6C5CCC(=O)NC5=O)CC4)CC3)C2)ccc1Nc1ncc2c(n1)N(C1CCCC1)C(=O)C2(C)C (stereo not shown) [I-524]
CDK2 degradation 14 h: Average Dmax %: A (A (>75% o))
DC50: < 100 nM

Cc1cc(S(=O)(=O)C2CC3(CCN(CC4CCN(c5ccc6c(c5F)n(C)c(=O)n6C5CCC(=O)NC5=O)CC4)CC3)C2)ccc1Nc1ncc2c(n1)N(C1CCCC1)C(=O)C21CC1 (stereo not shown) [I-529]
CDK2 degradation 14 h: Average Dmax %: A (A (>75% o))
DC50: < 100 nM

— US20240173419A1, “CDK2 DEGRADERS AND USES THEREOF” (Kymera Therapeutics, Inc., priority 2022, published 2024)
